Several values for one entry are separate records, joined by “and”; a condition that tells them apart may be missing. Equal values may be shown once. Toxic doses and inconclusive results are not listed. How the source made its calls: active means survival T/C of 150% or more; inactive means T/C below 125% in these data.
Test system: P388 leukemia ip, CD2F1 mice, survival T/C
Assay: NCI In Vivo Anticancer Drug Screen. Data for tumor model P388 Leukemia (intraperitoneal) in CD2F1 (CDF1) mice
Settings: endpoint: median survival time, higher = longer survival
Procedure, shortened: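 Mice carrying the transplanted tumor received test compound or vehicle. Survival was recorded in each group, and the value is the treated-group measurement divided by that of the vehicle-treated control group.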

[1] = dose: 25.0 mg/kg/injection, schedule: Q01DX005 (ip), vehicle: saline with Tween-80
[2] = dose: 50.0 mg/kg/injection, schedule: Q01DX005 (ip), vehicle: saline with Tween-80
[3] = dose: 100.0 mg/kg/injection, schedule: Q01DX005 (ip), vehicle: saline with Tween-80
[4] = dose: 50.0 mg/kg/injection, schedule: Q01DX009 (ip), vehicle: saline with Tween-80
[5] = dose: 100.0 mg/kg/injection, schedule: Q01DX009 (ip), vehicle: saline with Tween-80
[6] = dose: 200.0 mg/kg/injection, schedule: Q01DX009 (ip), vehicle: saline with Tween-80
[7] = dose: 50.0 mg/kg/injection, schedule: Q04DX003 (ip), vehicle: saline with Tween-80
[8] = dose: 100.0 mg/kg/injection, schedule: Q04DX003 (ip), vehicle: saline with Tween-80
[9] = dose: 3.12 mg/kg/injection, schedule: Q01DX005 (ip), vehicle: saline with Tween-80
[10] = dose: 6.25 mg/kg/injection, schedule: Q01DX005 (ip), vehicle: saline with Tween-80
[11] = dose: 12.5 mg/kg/injection, schedule: Q01DX005 (ip), vehicle: saline with Tween-80
[12] = dose: 50.0 mg/kg/injection, schedule: Q01DX009 (ip), vehicle: Klucel (hydroxypropylcellulose) (HPC)
[13] = dose: 100.0 mg/kg/injection, schedule: Q01DX009 (ip), vehicle: Klucel (hydroxypropylcellulose) (HPC)
[14] = dose: 200.0 mg/kg/injection, schedule: Q01DX009 (ip), vehicle: Klucel (hydroxypropylcellulose) (HPC)
[15] = dose: 12.5 mg/kg/injection, schedule: Q01DX009 (ip), vehicle: saline
[16] = dose: 25.0 mg/kg/injection, schedule: Q01DX009 (ip), vehicle: saline
[17] = dose: 60.0 mg/kg/injection, schedule: Q01DX005 (ip), vehicle: saline with Tween-80
[18] = dose: 120.0 mg/kg/injection, schedule: Q01DX005 (ip), vehicle: saline with Tween-80
[19] = dose: 240.0 mg/kg/injection, schedule: Q01DX005 (ip), vehicle: saline with Tween-80
[20] = dose: 200.0 mg/kg/injection, schedule: Q01DX005 (ip), vehicle: saline with Tween-80
[21] = dose: 50.0 mg/kg/injection, schedule: Q01DX009 (ip), vehicle: saline
[22] = dose: 100.0 mg/kg/injection, schedule: Q01DX009 (ip), vehicle: saline
[23] = dose: 200.0 mg/kg/injection, schedule: Q01DX009 (ip), vehicle: saline
[24] = dose: 400.0 mg/kg/injection, schedule: Q01DX009 (ip), vehicle: saline

Measured: T/C

O=C1OC(c2ccccc2)(c2ccccc2)CC1C=C(c1ccccc1)c1ccccc1 (stereo not given)
inactive: [1] 92 % of control | [2] 89 % of control and 94 % of control | [3] 89 % of control

Nc1ccc(Br)cc1[N+](=O)[O-]
inactive: [4] 101 % of control | [5] 107 % of control | [6] 100 % of control | dose: 400.0 mg/kg/injection, schedule: Q01DX009 (ip), vehicle: saline with Tween-80 117 % of control

Cc1ncc2c(=O)c3c(ccc4ccccc43)oc2n1
inactive: [7] 96 % of control | [8] 96 % of control | dose: 200.0 mg/kg/injection, schedule: Q04DX003 (ip), vehicle: saline with Tween-80 97 % of control | dose: 400.0 mg/kg/injection, schedule: Q04DX003 (ip), vehicle: saline with Tween-80 103 % of control

CCCCCN(CCCCC)C(C)C(O)c1ccc2cc(Cl)c3ccccc3c2c1 (stereo not given)
inactive: [2] 99 % of control | [3] 101 % of control

CCCC1CCCCN1C (stereo not given)
inactive: [9] 105 % of control | [10] 105 % of control | [11] 108 % of control | [1] 105 % of control

CC(C)c1ccccc1S(=O)c1ccccc1C(C)(C)O (stereo not given)
inactive: [12] 98 % of control | [13] 102 % of control | [14] 95 % of control

CCOC(=O)C(CCCOC1CCCCO1)(C(=O)CC)c1ccccc1 (stereo not given) (tested in a mixture with another compound)
inactive: dose: 50.0 mg/kg/injection, schedule: Q01DX009 (ip), vehicle: acetone 111 % of control | dose: 100.0 mg/kg/injection, schedule: Q01DX009 (ip), vehicle: acetone 103 % of control | dose: 200.0 mg/kg/injection, schedule: Q01DX009 (ip), vehicle: acetone 107 % of control

CCCCCCCCCCCCCCCCCCOP(=O)([O-])OCC[N+](C)(C)C
inactive: [15] 98 % of control | [16] 107 % of control

COc1cc2ccc1NC(=O)N1CCN(CC1)C(=O)Nc1ccc(cc1OC)-c1ccc(c(OC)c1)NC(=O)N1CCN(CC1)C(=O)Nc1ccc-2cc1OC
inactive: dose: 50.0 mg/kg/injection, schedule: Q01DX005 (ip), vehicle: Klucel (hydroxypropylcellulose) (HPC) 101 % of control | dose: 100.0 mg/kg/injection, schedule: Q01DX005 (ip), vehicle: Klucel (hydroxypropylcellulose) (HPC) 98 % of control | dose: 200.0 mg/kg/injection, schedule: Q01DX005 (ip), vehicle: Klucel (hydroxypropylcellulose) (HPC) 102 % of control

CC(C)(NC(=O)OC12CC3CC(CC(C3)C1)C2)C(=O)O
inactive: [17] 109 % of control | [18] 104 % of control | [19] 98 % of control

Nc1nc2nn(Cc3ccc(Cl)c(Cl)c3)c(-c3ccc(Cl)c(Cl)c3)c2c(=O)[nH]1
inactive: dose: 100.0 mg/kg/injection, schedule: Q01DX001 (ip), vehicle: saline with Tween-80 91 % of control | dose: 200.0 mg/kg/injection, schedule: Q01DX001 (ip), vehicle: saline with Tween-80 97 % of control | dose: 400.0 mg/kg/injection, schedule: Q01DX001 (ip), vehicle: saline with Tween-80 88 % of control

CSC(CNC(=O)N(CCCl)N=O)n1cc(F)c(=O)[nH]c1=O (stereo not given)
inactive: [8] 110 % of control and 123 % of control
active: dose: 3.12 mg/kg/injection, schedule: Q04DX003 (ip), vehicle: saline with Tween-80 161 % of control | dose: 6.25 mg/kg/injection, schedule: Q04DX003 (ip), vehicle: saline with Tween-80 158 % of control and 171 % of control | dose: 12.5 mg/kg/injection, schedule: Q04DX003 (ip), vehicle: saline with Tween-80 220 % of control and 264 % of control | dose: 25.0 mg/kg/injection, schedule: Q04DX003 (ip), vehicle: saline with Tween-80 266 % of control and 285 % of control | [7] 275 % of control and 285 % of control

CCc1nc(N)nc(N)c1-c1ccc(Cl)c(N=NN(C)C)c1
inactive: [2] 92 % of control | [3] 97 % of control | [20] 105 % of control

COc1ccc(/C(=N/SC)N(C)C)cc1
inactive: dose: 3.75 mg/kg/injection, schedule: Q01DX005 (ip), vehicle: saline 103 % of control | dose: 7.5 mg/kg/injection, schedule: Q01DX005 (ip), vehicle: saline 111 % of control | dose: 15.0 mg/kg/injection, schedule: Q01DX005 (ip), vehicle: saline 104 % of control

CC(C)NNC(=O)c1ccncc1
inactive: [15] 96 % of control | [16] 101 % of control | [21] 103 % of control | [22] 96 % of control | [23] 98 % of control | [24] 64 % of control

O=C1N2CCCSC2=NC1(c1ccccc1)c1ccccc1
inactive: [17] 97 % of control | [18] 98 % of control | [19] 89 % of control

Cc1[nH]c2ccc(N(C)C)cc2c(=O)c1CN(C)Cc1c(C)[nH]c2ccc(N(C)C)cc2c1=O
inactive: [17] 99 % of control | [18] 100 % of control | [19] 100 % of control

CN(/N=C/c1ccccc1O)C(=O)Nc1cc(C(F)(F)F)ccc1Cl
inactive: [1] 100 % of control | [2] 100 % of control and 102 % of control | [3] 94 % of control and 96 % of control | [20] 91 % of control and 94 % of control

O=C1CN=C(c2ccccc2)N(c2ccccc2)N1
inactive: dose: 60.0 mg/kg/injection, schedule: Q01DX005 (ip), vehicle: Klucel (hydroxypropylcellulose) (HPC) 107 % of control | dose: 120.0 mg/kg/injection, schedule: Q01DX005 (ip), vehicle: Klucel (hydroxypropylcellulose) (HPC) 100 % of control | dose: 240.0 mg/kg/injection, schedule: Q01DX005 (ip), vehicle: Klucel (hydroxypropylcellulose) (HPC) 103 % of control

CCOC(=O)CC1(C)OCCO1
inactive: [21] 98 % of control | [22] 99 % of control | [23] 99 % of control | [24] 101 % of control

Cc1nc2ccncn2n1
inactive: dose: 100.0 mg/kg/injection, schedule: Q04DX003 (ip), vehicle: saline 99 % of control | dose: 200.0 mg/kg/injection, schedule: Q04DX003 (ip), vehicle: saline 95 % of control | dose: 400.0 mg/kg/injection, schedule: Q04DX003 (ip), vehicle: saline 93 % of control

O=C(NCCCNC(=O)C12CC3CC(CC(C3)C1)C2)C12CC3CC(CC(C3)C1)C2
inactive: [2] 98 % of control | [3] 92 % of control | [20] 100 % of control

COC(=O)C(Cl)Cc1cncn1C (stereo not given)
inactive: [4] 94 % of control | [5] 92 % of control | [6] 93 % of control

CSC(=S)n1nc(-c2ccccc2)c(N=Nc2cccc(F)c2)c1-c1ccccc1
inactive: dose: 100.0 mg/kg/injection, schedule: Q04DX002 (ip), vehicle: saline with Tween-80 100 % of control | dose: 200.0 mg/kg/injection, schedule: Q04DX002 (ip), vehicle: saline with Tween-80 97 % of control | dose: 400.0 mg/kg/injection, schedule: Q04DX002 (ip), vehicle: saline with Tween-80 87 % of control

COc1cc2c(c(OC(C)=O)c1OC)-c1ccc(OC)c(=O)cc1[C@@H](NC(C)=O)CC2
inactive: dose: 1.25 mg/kg/injection, schedule: Q01DX009 (ip), vehicle: Klucel (hydroxypropylcellulose) (HPC) 94 % of control | dose: 2.5 mg/kg/injection, schedule: Q01DX009 (ip), vehicle: Klucel (hydroxypropylcellulose) (HPC) 92 % of control | dose: 5.0 mg/kg/injection, schedule: Q01DX009 (ip), vehicle: Klucel (hydroxypropylcellulose) (HPC) 100 % of control | dose: 10.0 mg/kg/injection, schedule: Q01DX009 (ip), vehicle: Klucel (hydroxypropylcellulose) (HPC) 100 % of control | dose: 20.0 mg/kg/injection, schedule: Q01DX009 (ip), vehicle: Klucel (hydroxypropylcellulose) (HPC) 109 % of control

c1ccc2c(c1)oc1cc3c(cc12)ncc1cccn13
inactive: dose: 1.56 mg/kg/injection, schedule: Q01DX005 (ip), vehicle: saline with Tween-80 103 % of control | [9] 100 % of control | [10] 97 % of control | [11] 90 % of control

C=C1C(=O)OC2(C)CCC1CC1OC1(C)CCC=C(C)CCC2O (stereo not given)
inactive: dose: 12.5 mg/kg/injection, schedule: Q01DX009 (ip), vehicle: Klucel (hydroxypropylcellulose) (HPC) 98 % of control | dose: 25.0 mg/kg/injection, schedule: Q01DX009 (ip), vehicle: Klucel (hydroxypropylcellulose) (HPC) 101 % of control | [12] 106 % of control | [13] 101 % of control | [14] 106 % of control

From PubChem BioAssay AID330 (DTP/NCI, 2004)
